Source: patent US12497597B2, “Methods of generating and expanding hematopoietic stem cells” (CHILDREN'S HOSPITAL MEDICAL CENTER, priority 2019, dated 2025)

Key:
Notch activity = assay: Notch inhibition in organoid cultures with the γ-secretase inhibitor DAPT; type: cell-based, human
liver organoid cultures = assay: Notch dependency test: DLL4 added to Matrigel drops of liver organoid culture with hematopoietic cytokines; type: cell-based, human
Protocol: Day 7 spheroids were collected by manual pipetting and pelleted by centrifugation. Media was aspirated and cells were embedded in 100% Matrigel by gentle pipetting to homogenize the cell pellet. Optionally, a Notch activator or ligand is added to the Matrigel (e.g. 10 μg/mL, of […]). Alternatively, optionally, UCB cells are added to the Matrigel for co-culture with organoids (e.g. 1,000 UCB cells per 75 μL of Matrigel). 250 μL Matrigel (Corning) was used per well of a 24-well plate of definitive endoderm culture. 75 μL Matrigel drops were made, 1 drop per each well of a fresh 24-well plate (VWR). The plates were placed at 37° C. in an atmosphere of 5% CO2/95% air for 5-15 minutes. After the Matrigel was solidified, Advanced DMEM/F12 with 1×B27, 1×N2, 2 mM L-glutamine, 15 mM HEPES, and 1× penicillin/streptomycin was added to the wells. This media was supplemented with 20 ng/mL BMP4 and 10 ng/mL, FGF2 for 4 days, and then the BMP4 and FGF2 were removed.
Organoids were isolated from Matrigel drops and washed with 1×PBS. HLOs were dissociated to single cells by treatment with Trypsin-EDTA (0.05%, with phenol red, Gibco) for 10 minutes. Cells were washed in DMEM/F12 with 10% FBS and suspended in PBS with 2% FBS. After filtration (e.g. through a 40-50 μm nylon filter), the single cells were subjected to flow cytometry with the following antibodies: anti-CD45-APC (Miltenyl, 130-098-143), anti-CD34-APC/Cy7 (BioLegend, 343513), anti-CD11b-PE/Cy7 (BioLegend, 301322), anti-CD19-BV421 (BioLegend, 302233), anti-CD27-AF700 (BioLegend, 356415), anti-CD43-FITC (BioLegend, 315204). For mouse engraftment experiments, anti-mouse CD45-BV421 (BioLegend, 103133) was used.
RNA was isolated using the RNeasy mini kit (Qiagen). Reverse transcription was carried out using the High-Capacity cDNA. Reverse Transcription Kit (Thermo Fisher) according to manufacturer's protocol. qPCR was carried out in duplicate using TagMan Gene Expression Master Mix (Applied Biosystems) and probes from the Universal Probe Library (Roche) on a QuantStudio 3 Real-Time PCR System (Thermo Fisher). […]

In the case of `C[C@H](NC(=O)Cc1cc(F)cc(F)c1)C(=O)N[C@H](C(=O)OC(C)(C)C)c1ccccc1` [DAPT], the HES1 expression (Notch activity; different concentrations of DAPT, 4 days of treatment from day 6, FIG. 10C) is reported as “decrease”, the albumin expression (Notch activity; different concentrations of DAPT, 4 days of treatment from day 6, FIG. 10D) is reported as “maintaining albumin expression” and the visible erythrocytes (Notch activity; light microscopy, 100 μM DAPT vs DMSO control, 12 days of treatment, FIG. 10A) is reported as “decrease in visible erythrocytes”.

“DLL4: Notch ligand added to the Matrigel drops during organoid seeding” was tested, and the “production of CD45+ hematopoietic cells” value (liver organoid cultures; DLL4 1-10 μg/mL in Matrigel drops at organoid seeding, medium with IL-3, IL-34, GM-CSF 100 ng/mL each, FIG. 8) was “increased the efficiency of cytokines in producing CD45^+ hematopoietic cells”, the IL-6 expression (liver organoid cultures; qPCR, organoids at day 18, DLL4 plus cytokines IL-3, IL-34, GM-CSF, FIG. 9A) was “significant increase” and the albumin expression (liver organoid cultures; qPCR, organoids at day 18, DLL4 plus cytokines IL-3, IL-34, GM-CSF, FIG. 9B) was “modest decrease”.
